{"source": "patent US20260027116A1", "about": "“Methods of Treating Chronic Graft-Versus-Host Disease Following Allogeneic Hematopoietic Stem Cell Transplantation” (Kadmon Corporation, LLC, priority 2022, published 2026)", "test_system": "patients with cGVHD", "note": "Entries after “also recorded” stand apart in the source; their conditions may differ."}
{"smiles": "CC(C)NC(=O)COc1cccc(-c2nc(Nc3ccc4[nH]ncc4c3)c3ccccc3n2)c1", "note": "[Belumosudil, 2-{3-[4-(1H-indazol-5-ylamino)-2-quinazolinyl]phenoxy}-N-(propan-2-yl) acetamide]", "values": [{"measurement": "Tremor: # Events", "setting": "Cohort 3 400 mg QD", "result": 4}, {"measurement": "Tremor: Affected/At Risk (%)", "setting": "Cohort 3 400 mg QD", "result": "3/21 (14.29%)"}, {"measurement": "Type 2 diabetes mellitus: # Events", "setting": "Cohort 3 400 mg QD", "result": 0}, {"measurement": "Type 2 diabetes mellitus: Affected/At Risk (%)", "setting": "Cohort 3 400 mg QD", "result": "0/21 (0%)"}, {"measurement": "Ulcerative keratitis: # Events", "setting": "Cohort 3 400 mg QD", "result": 0}, {"measurement": "Ulcerative keratitis: Affected/At Risk (%)", "setting": "Cohort 3 400 mg QD", "result": "0/21 (0%)"}, {"measurement": "Upper respiratory tract infection: # Events", "setting": "Cohort 3 400 mg QD", "result": 9}, {"measurement": "Upper respiratory tract infection: Affected/At Risk (%)", "setting": "Cohort 3 400 mg QD", "result": "7/21 (33.33%)"}, {"measurement": "Upper-airway cough syndrome: # Events", "setting": "Cohort 3 400 mg QD", "result": 1}, {"measurement": "Upper-airway cough syndrome: Affected/At Risk (%)", "setting": "Cohort 3 400 mg QD", "result": "1/21 (4.76%)"}, {"measurement": "Urinary retention: # Events", "setting": "Cohort 3 400 mg QD", "result": 0}, {"measurement": "Urinary retention: Affected/At Risk (%)", "setting": "Cohort 3 400 mg QD", "result": "0/21 (0%)"}, {"measurement": "Urinary tract infection: # Events", "setting": "Cohort 3 400 mg QD", "result": 0}, {"measurement": "Urinary tract infection: Affected/At Risk (%)", "setting": "Cohort 3 400 mg QD", "result": "0/21 (0%)"}, {"measurement": "Urinary tract pain: # Events", "setting": "Cohort 3 400 mg QD", "result": 1}, {"measurement": "Urinary tract pain: Affected/At Risk (%)", "setting": "Cohort 3 400 mg QD", "result": "1/21 (4.76%)"}, {"measurement": "Urine output decreased: # Events", "setting": "Cohort 3 400 mg QD", "result": 0}, {"measurement": "Urine output decreased: Affected/At Risk (%)", "setting": "Cohort 3 400 mg QD", "result": "0/21 (0%)"}, {"measurement": "Vascular access complication: # Events", "setting": "Cohort 3 400 mg QD", "result": 0}, {"measurement": "Vascular access complication: Affected/At Risk (%)", "setting": "Cohort 3 400 mg QD", "result": "0/21 (0%)"}, {"measurement": "Vertigo: # Events", "setting": "Cohort 3 400 mg QD", "result": 0}, {"measurement": "Vertigo: Affected/At Risk (%)", "setting": "Cohort 3 400 mg QD", "result": "0/21 (0%)"}, {"measurement": "Vision blurred: # Events", "setting": "Cohort 3 400 mg QD", "result": 4}, {"measurement": "Vision blurred: Affected/At Risk (%)", "setting": "Cohort 3 400 mg QD", "result": "4/21 (19.05%)"}, {"measurement": "Vomiting: # Events", "setting": "Cohort 3 400 mg QD", "result": 4}, {"measurement": "Vomiting: Affected/At Risk (%)", "setting": "Cohort 3 400 mg QD", "result": "4/21 (19.05%)"}, {"measurement": "Weight decreased: # Events", "setting": "Cohort 3 400 mg QD", "result": 4}, {"measurement": "Weight decreased: Affected/At Risk (%)", "setting": "Cohort 3 400 mg QD", "result": "2/21 (9.52%)"}, {"measurement": "Weight increased: # Events", "setting": "Cohort 3 400 mg QD", "result": 4}, {"measurement": "Weight increased: Affected/At Risk (%)", "setting": "Cohort 3 400 mg QD", "result": "1/21 (4.76%)"}, {"measurement": "White blood cell count decreased: # Events", "setting": "Cohort 3 400 mg QD", "result": 2}, {"measurement": "White blood cell count decreased: Affected/At Risk (%)", "setting": "Cohort 3 400 mg QD", "result": "1/21 (4.76%)"}, {"measurement": "cytomegalovirus (CMV) infection or reactivation", "setting": "Example 1", "result": "No cases; also recorded: no reported CMV infection or reactivation"}, {"measurement": "deaths attributed to belumosudil", "setting": "Example 1", "result": "none of the deaths attributed to belumosudil"}, {"measurement": "dose response with respect to observed AEs", "setting": "Example 1", "result": "no dose response"}, {"measurement": "median duration of dose interruption", "setting": "Example 1", "result": 10, "unit": "days"}, {"measurement": "median duration of dose reduction", "setting": "Example 1", "result": 97, "unit": "days"}, {"measurement": "patients who discontinued because of potentially drug-related AEs", "setting": "Example 1", "result": "Three"}, {"measurement": "patients with dose interruptions", "setting": "Example 1", "result": 41, "unit": "%"}, {"measurement": "patients with dose reductions", "setting": "Example 1", "result": 9, "unit": "%"}, {"measurement": "tolerability", "setting": "Example 1", "result": "well-tolerated"}, {"measurement": "grade ≥3 cytopenias", "setting": "Example 1, N=54", "result": 4, "unit": "%"}, {"measurement": "grade ≥3 dyspnea", "setting": "Example 1, N=54", "result": 13, "unit": "%"}, {"measurement": "grade ≥3 hyperglycemia", "setting": "Example 1, N=54", "result": 7, "unit": "%"}, {"measurement": "grade ≥3 hypoxia", "setting": "Example 1, N=54", "result": 7, "unit": "%"}, {"measurement": "grade ≥3 increased liver function tests", "setting": "Example 1, N=54", "result": 7, "unit": "%"}, {"measurement": "patients with a grade ≥3 AE", "setting": "Example 1, N=54", "result": "Sixty-one"}, {"measurement": "patients with cough", "setting": "Example 1, N=54", "result": 22, "unit": "%"}, {"measurement": "patients with diarrhea", "setting": "Example 1, N=54", "result": 33, "unit": "%"}, {"measurement": "patients with dyspnea", "setting": "Example 1, N=54", "result": 30, "unit": "%"}, {"measurement": "patients with fatigue", "setting": "Example 1, N=54", "result": 33, "unit": "%"}, {"measurement": "patients with headache", "setting": "Example 1, N=54", "result": 24, "unit": "%"}, {"measurement": "patients with hypertension", "setting": "Example 1, N=54", "result": 20, "unit": "%"}, {"measurement": "patients with increased liver function tests", "setting": "Example 1, N=54", "result": 33, "unit": "%"}, {"measurement": "patients with nausea", "setting": "Example 1, N=54", "result": 33, "unit": "%"}, {"measurement": "patients with peripheral edema", "setting": "Example 1, N=54", "result": 24, "unit": "%"}, {"measurement": "patients with serious AEs", "setting": "Example 1, N=54", "result": 43, "unit": "%"}, {"measurement": "patients with upper respiratory infection", "setting": "Example 1, N=54", "result": 46, "unit": "%"}, {"measurement": "serious AE dyspnea", "setting": "Example 1, N=54", "result": 7, "unit": "%"}, {"measurement": "serious AE hypoxia", "setting": "Example 1, N=54", "result": 4, "unit": "%"}, {"measurement": "serious AE influenza-like illness", "setting": "Example 1, N=54", "result": 4, "unit": "%"}, {"measurement": "serious AE lung infection", "setting": "Example 1, N=54", "result": 6, "unit": "%"}, {"measurement": "patients who died during the study", "setting": "Example 1, all in cohort 3", "result": "Four"}, {"measurement": "All grade ALT/AST increased, No. (%)", "setting": "Total, N=54", "result": "18 (33)"}, {"measurement": "All grade Cough, No. (%)", "setting": "Total, N=54", "result": "12 (22)"}, {"measurement": "All grade Diarrhea, No. (%)", "setting": "Total, N=54", "result": "18 (33)"}, {"measurement": "All grade Dyspnea, No. (%)", "setting": "Total, N=54", "result": "16 (30)"}, {"measurement": "All grade Fatigue, No. (%)", "setting": "Total, N=54", "result": "18 (33)"}, {"measurement": "All grade Headache, No. (%)", "setting": "Total, N=54", "result": "13 (24)"}, {"measurement": "All grade Hypertension, No. (%)", "setting": "Total, N=54", "result": "11 (20)"}, {"measurement": "All grade Nausea, No. (%)", "setting": "Total, N=54", "result": "18 (33)"}, {"measurement": "All grade Peripheral edema, No. (%)", "setting": "Total, N=54", "result": "13 (24)"}, {"measurement": "All grade URI, No. (%)", "setting": "Total, N=54", "result": "25 (46)"}, {"measurement": "Any AE, No. (%)", "setting": "Total, N=54", "result": "53 (98)"}, {"measurement": "Death, No. (%)", "setting": "Total, N=54", "result": "2 (4)"}, {"measurement": "Drug-related AE, No. (%)", "setting": "Total, N=54", "result": "30 (56)"}, {"measurement": "Drug-related SAE, No. (%)", "setting": "Total, N=54", "result": 0}, {"measurement": "Grade ≥3 AE, No. (%)", "setting": "Total, N=54", "result": "33 (61)"}, {"measurement": "Grade ≥3 ALT/AST increased, No. (%)", "setting": "Total, N=54", "result": "4 (7)"}, {"measurement": "Grade ≥3 Anemia, No. (%)", "setting": "Total, N=54", "result": "3 (6)"}, {"measurement": "Grade ≥3 Dyspnea, No. (%)", "setting": "Total, N=54", "result": "7 (13)"}, {"measurement": "Grade ≥3 Hyperglycemia, No. (%)", "setting": "Total, N=54", "result": "4 (7)"}, {"measurement": "Grade ≥3 Hypoxia, No. (%)", "setting": "Total, N=54", "result": "4 (7)"}, {"measurement": "Grade ≥3 Lung infection or pneumonia, No. (%)", "setting": "Total, N=54", "result": "5 (9)"}, {"measurement": "SAE, No. (%)", "setting": "Total, N=54", "result": "23 (43)"}]}
